Measurements: patent US8410112B2, “Compounds useful as inhibitors of ATR kinase” (Vertex Pharmaceuticals Incorporated, priority 2008, dated 2013)
pIC50, pKi: −log10 of the molar value.

Experiments:
intracellular ATR = target: T1, intracellular ATR (Homo sapiens, UniProt Q13535); assay: Cellular ATR Inhibition Assay (H2AX phosphorylation, immunofluorescence microscopy); assay type: cell-based; conditions: HT29 cells, 2 mM hydroxyurea, percentage of phosphorylated H2AX Ser139-positive nuclei
T1 construct: endogenous in cells; host or cells: HT29
Description: Compounds were screened for their ability to inhibit intracellular ATR using an immunofluorescence microscopy assay to detect phosphorylation of the ATR substrate histone H2AX in hydroxyurea treated cells. HT29 cells were plated at 14,000 cells per well in 96-well black imaging plates (BD 353219) in McCoy's 5A media (Sigma M8403) supplemented with 10% foetal bovine serum (JRH Biosciences 12003), Penicillin/Streptomycin solution diluted 1:100 (Sigma P7539), and 2 mM L-glumtamine (Sigma G7513), and allowed to adhere overnight at 37° C. in 5% CO2. Compounds were then added to the cell media from a final concentration of 25 μM in 3-fold serial dilutions and the cells were incubated at 37° C. in 5% CO2. After 15 min, hydroxyurea (Sigma H8627) was added to a final concentration of 2 mM.
After 45 min of treatment with hydroxyurea, the cells were washed in PBS, fixed for 10 min in 4% formaldehyde diluted in PBS (Polysciences Inc 18814), washed in 0.2% Tween-20 in PBS (wash buffer), and permeabilised for 10 min in 0.5% Triton X-100 in PBS, all at room temperature. The cells were then washed once in wash buffer and blocked for 30 min at room temperature in 10% goat serum (Sigma G9023) diluted in wash buffer (block buffer). To detect H2AX phosphorylation levels, the cells were then incubated for 1 h at room temperature in primary antibody (mouse monoclonal anti-phosphorylated histone H2AX Ser139 antibody; Upstate 05-636) diluted 1:250 in block buffer. The cells were then washed five times in wash buffer before incubation for 1 h at room temperature in the dark in a mixture of secondary antibody (goat anti-mouse Alexa Fluor 488 conjugated antibody; Invitrogen A11029) and Hoechst stain (Invitrogen H3570); diluted 1:500 and 1:5000, respectively, in wash buffer. The cells were then washed five times in wash buffer and finally 100 ul PBS was added to each well before imaging.
Cells were imaged for Alexa Fluor 488 and Hoechst intensity using the BD Pathway 855 Bioimager and Attovision software (BD Biosciences, Version 1.6/855) to quantify phosphorylated H2AX Ser139 and DNA staining, respectively. The percentage of phosphorylated H2AX-positive nuclei in a montage of 9 images at 20× magnification was then calculated for each well using BD Image Data Explorer software (BD Biosciences Version 2.2.15). Phosphorylated H2AX-positive nuclei were defined as Hoechst-positive regions of interest containing Alexa Fluor 488 intensity at 1.75-fold the average Alexa Fluor 488 intensity in cells not treated with hydroxyurea. The percentage of H2AX positive nuclei was finally plotted against concentration for each compound and IC50s for intracellular ATR inhibition were determined using Prism software (GraphPad Prism version 3.0cx for Macintosh, GraphPad Software, San Diego Calif., USA).

full-length ATR = target: T2, full-length ATR (Homo sapiens, UniProt Q13535); assay: ATR Inhibition Assay (radioactive-phosphate incorporation); assay type: biochemical; conditions: Ki(app); 5 nM full-length ATR, 10 μM ATP, 800 μM target peptide, 25° C.
T2 construct: in the presence of 5 nM full-length ATR
In short: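 After a 10-min pre-incubation of compound with 5 nM enzyme at 25 °C, ATP was added to start the reaction (final 10 μM [γ-33P]ATP, 800 μM peptide; Tris/HCl pH 7.5, MgCl2, DTT), which ran 24 h. Incorporated 33P was captured on phosphocellulose filters, and Ki(app) was fitted by non-linear regression.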

T1 sequence (Q13535 whole entry): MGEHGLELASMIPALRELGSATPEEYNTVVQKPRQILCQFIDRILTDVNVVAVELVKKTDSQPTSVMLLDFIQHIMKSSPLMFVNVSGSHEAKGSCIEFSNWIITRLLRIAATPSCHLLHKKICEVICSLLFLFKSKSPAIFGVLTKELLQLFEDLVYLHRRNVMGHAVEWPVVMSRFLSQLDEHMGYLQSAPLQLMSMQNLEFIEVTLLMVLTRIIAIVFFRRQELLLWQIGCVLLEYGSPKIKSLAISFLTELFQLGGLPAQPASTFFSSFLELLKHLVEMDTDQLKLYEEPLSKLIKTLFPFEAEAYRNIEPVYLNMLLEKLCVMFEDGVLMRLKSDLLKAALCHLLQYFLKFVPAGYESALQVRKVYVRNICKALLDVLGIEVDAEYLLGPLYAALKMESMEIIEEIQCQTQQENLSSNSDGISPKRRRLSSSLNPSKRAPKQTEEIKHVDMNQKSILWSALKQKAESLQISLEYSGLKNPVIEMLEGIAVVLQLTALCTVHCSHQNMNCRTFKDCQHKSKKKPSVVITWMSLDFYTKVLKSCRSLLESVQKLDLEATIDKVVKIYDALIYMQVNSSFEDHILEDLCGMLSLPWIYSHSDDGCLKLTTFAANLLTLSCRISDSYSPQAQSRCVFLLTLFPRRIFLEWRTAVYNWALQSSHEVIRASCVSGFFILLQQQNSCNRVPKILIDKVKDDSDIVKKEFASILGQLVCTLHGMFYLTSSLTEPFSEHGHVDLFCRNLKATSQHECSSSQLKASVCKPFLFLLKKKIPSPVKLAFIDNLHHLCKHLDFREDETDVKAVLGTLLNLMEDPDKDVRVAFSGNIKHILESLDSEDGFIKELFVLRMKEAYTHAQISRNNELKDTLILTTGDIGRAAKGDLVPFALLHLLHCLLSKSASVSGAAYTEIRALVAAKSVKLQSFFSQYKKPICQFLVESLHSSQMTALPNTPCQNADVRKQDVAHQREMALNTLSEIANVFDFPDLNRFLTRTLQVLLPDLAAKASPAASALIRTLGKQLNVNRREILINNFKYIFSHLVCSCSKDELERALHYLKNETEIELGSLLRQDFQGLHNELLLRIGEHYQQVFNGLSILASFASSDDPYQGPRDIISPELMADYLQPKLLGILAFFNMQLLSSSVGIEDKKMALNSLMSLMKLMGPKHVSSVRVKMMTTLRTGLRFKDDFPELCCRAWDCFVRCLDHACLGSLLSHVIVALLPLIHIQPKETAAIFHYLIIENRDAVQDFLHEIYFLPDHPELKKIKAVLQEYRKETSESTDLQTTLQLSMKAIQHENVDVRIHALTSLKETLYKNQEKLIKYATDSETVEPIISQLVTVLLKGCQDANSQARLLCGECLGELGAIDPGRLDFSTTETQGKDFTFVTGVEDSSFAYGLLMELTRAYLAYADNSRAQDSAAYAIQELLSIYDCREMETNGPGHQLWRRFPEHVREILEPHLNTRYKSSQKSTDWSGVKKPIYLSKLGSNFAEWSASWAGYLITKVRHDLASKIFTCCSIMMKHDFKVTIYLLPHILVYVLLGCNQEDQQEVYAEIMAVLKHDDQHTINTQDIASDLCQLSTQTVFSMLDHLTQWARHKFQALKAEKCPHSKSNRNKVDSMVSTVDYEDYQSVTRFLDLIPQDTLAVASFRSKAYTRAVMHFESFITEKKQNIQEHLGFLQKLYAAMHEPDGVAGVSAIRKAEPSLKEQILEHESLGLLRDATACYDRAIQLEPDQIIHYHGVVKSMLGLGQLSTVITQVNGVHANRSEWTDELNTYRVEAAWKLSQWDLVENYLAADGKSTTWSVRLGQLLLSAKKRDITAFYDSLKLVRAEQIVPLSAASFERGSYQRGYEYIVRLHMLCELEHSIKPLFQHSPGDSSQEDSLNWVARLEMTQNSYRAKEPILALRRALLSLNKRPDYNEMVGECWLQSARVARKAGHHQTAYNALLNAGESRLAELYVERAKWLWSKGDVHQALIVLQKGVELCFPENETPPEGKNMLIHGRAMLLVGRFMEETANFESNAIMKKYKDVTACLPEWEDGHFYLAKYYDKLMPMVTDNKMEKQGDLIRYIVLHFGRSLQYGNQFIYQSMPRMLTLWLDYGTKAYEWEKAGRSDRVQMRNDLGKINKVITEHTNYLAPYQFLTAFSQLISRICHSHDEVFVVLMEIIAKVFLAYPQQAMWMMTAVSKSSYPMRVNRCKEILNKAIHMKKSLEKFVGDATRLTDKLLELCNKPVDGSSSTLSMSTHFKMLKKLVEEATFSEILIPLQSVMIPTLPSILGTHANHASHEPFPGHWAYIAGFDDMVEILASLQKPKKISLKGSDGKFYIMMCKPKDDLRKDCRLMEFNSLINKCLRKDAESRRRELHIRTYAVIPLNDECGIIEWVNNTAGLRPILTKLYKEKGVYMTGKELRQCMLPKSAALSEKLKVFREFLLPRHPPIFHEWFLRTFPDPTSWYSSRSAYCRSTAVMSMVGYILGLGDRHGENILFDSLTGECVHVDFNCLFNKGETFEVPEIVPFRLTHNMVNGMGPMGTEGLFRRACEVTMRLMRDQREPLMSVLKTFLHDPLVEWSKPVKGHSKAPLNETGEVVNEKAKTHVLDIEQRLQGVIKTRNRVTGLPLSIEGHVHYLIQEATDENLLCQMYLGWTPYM
T1 sequence (Q8WXE1 whole entry partner): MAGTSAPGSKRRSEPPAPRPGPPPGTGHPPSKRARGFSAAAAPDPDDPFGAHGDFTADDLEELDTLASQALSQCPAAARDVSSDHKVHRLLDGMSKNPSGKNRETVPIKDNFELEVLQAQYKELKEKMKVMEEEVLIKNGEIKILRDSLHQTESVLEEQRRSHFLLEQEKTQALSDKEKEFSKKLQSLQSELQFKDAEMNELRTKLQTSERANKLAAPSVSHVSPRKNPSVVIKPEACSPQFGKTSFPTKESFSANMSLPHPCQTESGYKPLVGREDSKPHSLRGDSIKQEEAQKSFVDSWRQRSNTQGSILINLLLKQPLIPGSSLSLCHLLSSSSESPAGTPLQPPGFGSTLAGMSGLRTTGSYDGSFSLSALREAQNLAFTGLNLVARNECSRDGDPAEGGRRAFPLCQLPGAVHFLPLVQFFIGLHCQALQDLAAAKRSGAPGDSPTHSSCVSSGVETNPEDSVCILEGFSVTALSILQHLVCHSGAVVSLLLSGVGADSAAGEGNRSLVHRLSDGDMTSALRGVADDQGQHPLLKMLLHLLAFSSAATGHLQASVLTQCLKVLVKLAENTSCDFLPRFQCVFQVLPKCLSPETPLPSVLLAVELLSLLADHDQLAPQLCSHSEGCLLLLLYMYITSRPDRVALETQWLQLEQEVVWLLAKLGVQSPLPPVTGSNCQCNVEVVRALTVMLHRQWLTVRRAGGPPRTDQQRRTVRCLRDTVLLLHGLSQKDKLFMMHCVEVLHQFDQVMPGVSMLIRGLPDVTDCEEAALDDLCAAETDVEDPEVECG
T2 sequence (Q13535 whole entry): as the sequence (Q13535 whole entry) above

Which results are given for `CN(C)S(=O)(=O)N1CC=C(c2cnc(N)c(-c3nc4cccnc4[nH]3)n2)CC1` [Compound I-26, 4-(5-amino-6-(3H-imidazo[4,5-b]pyridin-2-yl)pyrazin-2-yl)-N,N-dimethyl-5,6-dihydropyridine-1(2H)-sulfonamide]?
pIC50 (intracellular ATR): 5.30 to 6.00; pKi (full-length ATR): > 7.00

`CCS(=O)(=O)N1CC=C(c2cnc(N)c(-c3nc4cccnc4[nH]3)n2)CC1` [Compound I-27, 5-(1-(ethylsulfonyl)-1,2,3,6-tetrahydropyridin-4-yl)-3-(3H-imidazo[4,5-b]pyridin-2-yl)pyrazin-2-amine] was tested. Which pIC50 (intracellular ATR) did it give?
The pIC50 was over 6.00.

And the pKi (full-length ATR)?
Its pKi is over 7.00.

With `CCS(=O)(=O)N1CC=C(c2cnc(N)c(-c3nnc(-c4ccccc4)o3)n2)CC1` [Compound I-28, 5-(1-(ethylsulfonyl)-1,2,3,6-tetrahydropyridin-4-yl)-3-(5-phenyl-1,3,4-oxadiazol-2-yl)pyrazin-2-amine] as the compound, how does the pIC50 (intracellular ATR) read?
Its pIC50 is 5.00 to 5.30.

What about the pKi (full-length ATR) of the same compound?
Its pKi is over 7.00.
